[s4U] = 4-thiouridine base; m = 2'-O-methyl; r = 2'-OH (RNA)

Broadly, the IC50 is the point on the concentration scale where inhibition reaches its midpoint. Lower therefore signals greater potency.

Data set [1] has as its system HCT-8 cells. In words: Wound-healing assay on HCT-8 cells. It is filed as cell-based, human. The conditions noted are these: 50 nM; for wound area, inhibition of migration (FIG. 9A): vs control group. The method, then: (§1) HCT-8, fluorouracil-resistant HCT-8, fluorouracil-resistant LoVo cell lines were cultured in RPMI Medium 1640 medium containing 10% FBS and 1% penicillin/streptomycin. LoVo cell line was cultured in F-12K medium containing 10% FBS and 1% penicillin/streptomycin. All cell lines above were cultured at humidified atmosphere containing 5% CO2 at 37° C.
(§2) In the wound-healing assay, HCT-8 or LoVo cells were plated in 6-well microplate at a density of 500,000 cells per well in 2 mL of culture medium and allowed to adhere for 24 h before treatment. […] A 1 mL bacteria-free pipette tip was used to make a cross-scratch at the bottom of 6-well microplate. The cells in the scratch were washed away using phosphor buffer solution and the 6-well microplate was photographed under a microscope. Single concentration of RNA molecules obtained in Example 1 to 4 in a mixture containing a gene delivery carrier, i.e. Lipofectamine™ RNAiMAX Transfection Reagent (Thermo Fisher Scientific, U.S.A.) were then added to the cells. The cells were then photographed under microscope at 24 and 48 h. ImageJ software was applied to quantify the area of wound created. Each experiment was carried out for three times. Results were expressed as means±standard deviation.

Data set [2] has as its system LoVo/5-FU (5-FU-resistant strain of LoVo). Nature of the data set: MTT cytotoxicity assay on LoVo/5-FU cells. The format is cell-based. The conditions noted are these: for effect on growth and proliferation (FIGS. 7A, 7B): 6.25-100 nM; for IC50: MTT, 48 h treatment. As to the method: as §1
(§3) In the cytotoxicity assay, exponentially growing cells of each cancer cell line were plated in 96-well microplate at a density of 5000 cells per well in 100 μL of culture medium and allowed to adhere for 24 h before treatment. Serial concentrations of RNA molecules obtained in Example 1 to 4 in a mixture containing a gene delivery carrier, i.e. Lipofectamine™ RNAiMAX Transfection Reagent (Thermo Fisher Scientific, U.S.A.) were then added to the cells. After treated for 48 h, MTT solution (50 μL per well, 1 mg/mL solution) was added to each well and incubated for 4 h at 37° C. Subsequently, 200 μL dimethyl sulfoxide (DMSO) were added and the optical densities of the resulting solutions were calorimetrically determined at 570 nm using a SpectraMax 190 microplate reader (Molecular Devices, Sunnyvale, CA, U.S.A). Dose-response curves were obtained, and the IC50 values were calculated by GraphPad Prism 5 (GraphPad, La Jolla, CA, USA). Each experiment was carried out for three times. IC50 results were expressed as means±standard deviation.
For orientation: Tetrazolium dyes change colour on reduction, which living cells bring about.

Data set [3] has as its system HCT-8 human ileocecal colorectal adenocarcinoma cell line. In words: MTT cytotoxicity assay on HCT-8 cells. The format is cell-based. The conditions noted are these: for effect on growth and proliferation (FIGS. 7A, 7B) / IC50: HCT-8; for effect on growth and proliferation (FIGS. 7A, 7B): 6.25-100 nM; for IC50: MTT, 48 h treatment. As to the method:
as §1, §3

Data set [4] deals with LoVo cells. Nature of the data set: Wound-healing assay on LoVo cells. It is filed as cell-based. The conditions noted are these: 25 nM; for wound area, inhibition of migration (FIG. 9B): vs control group. As to the method: as §1, §2
For data set [5], the system named is LoVo colorectal adenocarcinoma cell line. In words: MTT cytotoxicity assay on LoVo cells. It is filed as cell-based. The conditions noted are these: for effect on growth and proliferation (FIGS. 7A, 7B): 6.25-100 nM; for IC50: MTT, 48 h treatment. The method, then: as §1, §3
Data set [6] concerns HCT-8/5-FU (5-FU-resistant strain of HCT-8). In words: MTT cytotoxicity assay on HCT-8/5-FU cells. The format is cell-based, human. The conditions noted are these: for effect on growth and proliferation (FIGS. 7A, 7B): 6.25-100 nM; for IC50: MTT, 48 h treatment. The method, then:
as §1, §3

The subject of data set [7] is LoVo cells. Nature of the data set: Clonogenic assay on LoVo cells. It is filed as cell-based. The conditions noted are these: 25 nM; for colony number, inhibition of proliferation (FIG. 8B): vs control group. As to the method:
as §1
(§4) In the clonogenic assay, HCT-8 or LoVo cells were plated in 6-well microplate at a density of 1000 cells per well in 2 mL of culture medium and allowed to adhere for 24 h before treatment. Single concentration of RNA molecules obtained in Example 1 to 4 in a mixture containing a gene delivery carrier, i.e. Lipofectamine™ RNAiMAX Transfection Reagent (Thermo Fisher Scientific, U.S.A.) were then added to the cells. After treated for 48 h, discarded the drug solutions and replaced with 2 mL of fresh culture medium. After culture 14 days, discarded the culture medium and the cells were fixated with 4% paraformaldehyde fix solution for 20 min, followed by stained with crystal violet for 10 min and then washed by deionized water. The 6-well microplate was photographed and the number of colonies with more than 50 individual cells were counted using ImageJ software (U.S.A.). Each experiment was carried out for three times. Results were expressed as means±standard deviation.

The subject of data set [8] is HCT-8 cells. Nature of the data set: Clonogenic assay on HCT-8 cells. It is filed as cell-based, human. The conditions noted are these: 50 nM; for colony number, inhibition of proliferation (FIG. 8A): vs control group. As to the method: as §1, §4
[9] abbreviates: among EC83 mimic and modified mimics.

Take “EC83 mimic: 22 bp dsRNA; antisense SEQ ID NO: 89 GCCGAAGUGGCGAAAUCGGUAG, sense SEQ ID NO: 183 CUACCGAUUUCGCCACUUCGGC; 5′-t of tRNA-Leu(CAA) (RNA, backbone not given here; tRNA-derived fragment mimic duplex) [22 bp dsRNA; 5′-t of tRNA-Leu(CAA)]”: the “wound area, inhibition of migration (FIG. 9A)” value in the data set on HCT-8 cells [1] is “significantly inhibit the migration”. Moreover, the “effect on growth and proliferation (FIGS. 7A, 7B)” value (shortened to “effect on growth and proliferation”) in data set [2] is “dose-dependent effect on inhibiting the growth and proliferation”; in data set [3] it was “dose-dependent effect on inhibiting the growth and proliferation”; in data set [5] it was “dose-dependent effect on inhibiting the growth and proliferation”; in data set [6], “dose-dependent effect on inhibiting the growth and proliferation”. For the same substance, the IC50 in data set [2] amounted to 29.5 nM; in data set [3], 70.6 nM; in data set [5] it was 28.8 nM; in data set [6], 63.4 nM. The “cytotoxicity ranking on HCT-8 cells (FIG. 6C)” value in data set [3] (among synthetic RNA molecules of Example 4) is “strongest cytotoxicity”. For the same substance, in the data set on LoVo cells [4], the “wound area, inhibition of migration (FIG. 9B)” value is “significantly inhibit the migration”. The “colony number, inhibition of proliferation (FIG. 8B)” value in the data set on LoVo cells [7] is reported as “significantly inhibit the proliferation”. Further, the “colony number, inhibition of proliferation (FIG. 8A)” value in the data set on HCT-8 cells [8] is recorded as “significantly inhibit the proliferation”.

On to “EC83-M1 mimic: modified EC83 dsRNA; antisense SEQ ID NO: 1 GCCGAAG[s^4U]GGCGAAAUCGGUAG, sense SEQ ID NO: 4 CUACCGAUUUCGCCACUUCGGC (antisense GCCGAAGUGGCGAAAUCGGUAG; antisense: RNA, [s4U] at 8, backbone not given here; sense: RNA, backbone not given here; tRNA-derived fragment mimic duplex)”, for which the “wound area, inhibition of migration (FIG. 9A)” value in the data set with HCT-8 cells [1] is reported as “significantly inhibit the migration”. Moreover, the “effect on growth and proliferation” value was “dose-dependent effect on inhibiting the growth and proliferation” in data set [2]; “dose-dependent effect on inhibiting the growth and proliferation” in data set [3]; “dose-dependent effect on inhibiting the growth and proliferation” in data set [5]; “dose-dependent effect on inhibiting the growth and proliferation” in data set [6]. Further, the half-maximal inhibitory concentration (IC50) in data set [2] was 54.2 nM; in data set [3], 77.9 nM; in data set [5], 43.6 nM; in data set [6], 69.6 nM. The “wound area, inhibition of migration (FIG. 9B)” value in the data set on LoVo cells [4] is listed as “significantly inhibit the migration”. In addition, in the data set on LoVo cells [7], the “colony number, inhibition of proliferation (FIG. 8B)” value is on record as “significantly inhibit the proliferation”. In addition, the “colony number, inhibition of proliferation (FIG. 8A)” value in the data set with HCT-8 cells [8] was “significantly inhibit the proliferation”.

Regarding “EC83-M2 mimic: modified EC83 dsRNA; antisense SEQ ID NO: 2 GCCGAAGUGGCGAAAUC[Gm]GUAG, sense SEQ ID NO: 5 CUACCGAUUUCGCCACUUCGGC (antisense GCCGAAGUGGCGAAAUCGGUAG; antisense: sugars from the 5' end r17 m1 r4, backbone not given here; sense: RNA, backbone not given here; tRNA-derived fragment mimic duplex)”, in the data set with HCT-8 cells [1] (setting [9]), the “wound healing inhibition ranking (FIG. 9A)” value is “strongest inhibition effect on the wound healing”. Also, the “wound area, inhibition of migration (FIG. 9A)” value in the data set with HCT-8 cells [1] is recorded as “significantly inhibit the migration”. Also, the “effect on growth and proliferation” value in data set [2] was “dose-dependent effect on inhibiting the growth and proliferation”; in data set [3], “dose-dependent effect on inhibiting the growth and proliferation”; in data set [5], “dose-dependent effect on inhibiting the growth and proliferation”; in data set [6] it was “dose-dependent effect on inhibiting the growth and proliferation”. The IC50 in data set [2] was determined as 18.3 nM; in data set [3] it was 58.9 nM; in data set [5], 19.9 nM; in data set [6], 48.8 nM. The “wound healing inhibition ranking (FIG. 9B)” value in the data set with LoVo cells [4] (setting [9]) is “strongest inhibition effect on the wound healing”. Further, the “wound area, inhibition of migration (FIG. 9B)” value with LoVo cells [4] was “significantly inhibit the migration”. The “anti-proliferation activity ranking (FIG. 8B)” value in the data set on LoVo cells [7] (setting [9]) was “strongest anti-proliferation activity”. For the same substance, the “colony number, inhibition of proliferation (FIG. 8B)” value in the data set with LoVo cells [7] is given as “significantly inhibit the proliferation”. For the same substance, the “anti-proliferation activity ranking (FIG. 8A)” value with HCT-8 cells [8] (setting [9]) was “strongest anti-proliferation activity”. Besides, the “colony number, inhibition of proliferation (FIG. 8A)” value with HCT-8 cells [8] is recorded as “significantly inhibit the proliferation”.

Consider “EC83-M3 mimic: modified EC83 dsRNA; antisense SEQ ID NO: 3 GCCGAAG[s^4U]GGCGAAAUC[Gm]GUAG, sense SEQ ID NO: 6 CUACCGAUUUCGCCACUUCGGC (antisense GCCGAAGUGGCGAAAUCGGUAG; antisense: sugars from the 5' end r17 m1 r4, [s4U] at 8, backbone not given here; sense: RNA, backbone not given here; tRNA-derived fragment mimic duplex)”, for which the “wound area, inhibition of migration (FIG. 9A)” value in the data set on HCT-8 cells [1] is “significantly inhibit the migration”. For the same substance, the “effect on growth and proliferation” value in data set [2] is “dose-dependent effect on inhibiting the growth and proliferation”; in data set [3], “dose-dependent effect on inhibiting the growth and proliferation”; in data set [5], “dose-dependent effect on inhibiting the growth and proliferation”; in data set [6], “dose-dependent effect on inhibiting the growth and proliferation”. Further, the IC50 in data set [2] amounted to 23 nM; in data set [3], 74.5 nM; in data set [5], 24.1 nM; in data set [6] it was 72.2 nM. In addition, the “wound area, inhibition of migration (FIG. 9B)” value with LoVo cells [4] is “significantly inhibit the migration”. Also, in the data set on LoVo cells [7], the “colony number, inhibition of proliferation (FIG. 8B)” value was “significantly inhibit the proliferation”. Also, the “colony number, inhibition of proliferation (FIG. 8A)” value with HCT-8 cells [8] is listed as “significantly inhibit the proliferation”.

For the origin of these results see US11866704B2, “Nucleic acid molecules and uses thereof” (Macau University of Science and Technology, priority 2020, dated 2024).
